target: T1, Tau K18 fragment aggregates (amino acids 244 to 372 of human Tau441) (Homo sapiens, UniProt P10636); test: Tau K18 disaggregation assay by ThT; type: biochemical; details: ThT fluorescence; 2 μM K18 aggregates, 30 minutes at RT
T1 construct: encompassing amino acids 244 to 372 of the longest isoform (2N4R) of human Tau441; purchased Biotechne; host or cells: bacteria
Protocol: Tau K18 Disaggregation Assay by ThT
The Tau K18 fragment, encompassing amino acids 244 to 372 of the longest isoform (2N4R) of human Tau441, was expressed in bacteria and purified (Biotechne). For the K18 disaggregation assay by ThT, 35 μM of recombinant K18 in PBS were aggregated for 24 hours at 37° C. in presence of 25 μM of heparin (Sigma-Aldrich) and 10 mM of 1,4-Dithiothreito (DTT from Sigma-Aldrich) under shaking at 750 RPM. Compound 1 was dissolved in anhydrous dimethyl sulfoxide (DMSO, Sigma-Aldrich) to reach a concentration of 10 mM. K18 aggregates and serial dilutions of compounds were mixed together in PBS (volume 50 μL) to a final concentration of 2 μM of K18 aggregates and from 400 to 0.1 μM of Compound 1. The mixture was incubated for 30 minutes at room temperature (RT), then 40 μL of this mixture were transferred into a black 384-well plate assay (Perkin-Elmer) and mixed with 10 μL of 100 μM ThT in 250 mM glycine (both from Sigma-Aldrich) in PBS. Fluorescence (relative fluorescence units; RFU) was measured in monoplicate or duplicate on a Tecan reader (excitation: 440 nm; emission: 485 nm). Percentage of K18 disaggregation was then calculated and half maximal effective concentration (EC50) was determined using GraphPad Prism version 8 (GraphPad Software) assuming a one-binding site fitting model, see Table 3 and Table 4.

T1 sequence (P10636 561-689): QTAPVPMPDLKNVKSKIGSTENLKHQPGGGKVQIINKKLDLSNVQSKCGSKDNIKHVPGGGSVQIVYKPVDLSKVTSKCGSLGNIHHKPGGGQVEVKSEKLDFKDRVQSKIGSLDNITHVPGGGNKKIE

`O=C(Nc1ccc2nc(N3CCOCC3)oc2c1)c1c[nH]c2ccccc12` [Example 14, N-(2-morpholinobenzo[d]oxazol-6-yl)-1H-indole-3-carboxamide] and `O=C(Nc1ccc2nc(N3CCOCC3)oc2c1)c1c[nH]c2ncccc12` [Example 15, N-(2-morpholinobenzo[d]oxazol-6-yl)-1H-pyrrolo[2,3-b]pyridine-3-carboxamide] fall in the same range of EC50: 10 to 50 µM for the first, 10 to 50 µM for the second.

`O=C(Nc1ccc2nc(N3CCOCC3)oc2c1)c1n[nH]c2ccccc12` [Example 16, N-(2-morpholinobenzo[d]oxazol-6-yl)-1H-indazole-3-carboxamide] and `c1ccc2c(C3CCN(c4ccc5nc(N6CCOCC6)oc5c4)CC3)c[nH]c2c1` [Example 52, 6-(4-(1H-indol-3-yl)piperidin-1-yl)-2-morpholinobenzo[d]oxazole] fall in the same range of EC50: 10 to 50 µM for the first, 10 to 50 µM for the second.

Compared with `Cn1cc(C2CCN(c3ccc4oc(N5CCOCC5)nc4c3)CC2)c2cc(F)cnc21` [Example 23, 5-(4-(5-fluoro-1-methyl-1H-pyrrolo[2,3-b]pyridin-3-yl)piperidin-1-yl)-2-morpholinobenzo[d]oxazole], `Cn1cc(C2CCN(c3ccc4oc(N5CCOCC5)nc4c3)C2)c2cc(F)cnc21` (stereo not shown) [Example 34, 5-(3-(5-fluoro-1-methyl-1H-pyrrolo[2,3-b]pyridin-3-yl)pyrrolidin-1-yl)-2-morpholinobenzo[d]oxazole] is lower in EC50: 10 to 50 µM for the first, 1 to 10 µM for the second. The second is the more potent here.

`c1ccc2c(C3CCN(c4cnc5sc(N6CCOCC6)nc5c4)CC3)n[nH]c2c1` [Example 42, 4-(6-(4-(1H-indazol-3-yl)piperidin-1-yl)thiazolo[5,4-b]pyridin-2-yl)morpholine] and `c1cc2c(C3CCN(c4ccc5oc(N6CCOCC6)nc5c4)CC3)c[nH]c2cn1` [Example 54, 5-(4-(1H-pyrrolo[2,3-c]pyridin-3-yl)piperidin-1-yl)-2-morpholinobenzo[d]oxazole] fall in the same range of EC50: 10 to 50 µM for the first, 10 to 50 µM for the second.

`Fc1cnc2c(C3CCN(c4ccc5oc(N6CCOCC6)nc5c4)CC3)c[nH]c2c1` [Example 53, 5-(4-(6-fluoro-1H-pyrrolo[3,2-b]pyridin-3-yl)piperidin-1-yl)-2-morpholinobenzo[d]oxazole] and `c1cc2[nH]cc(C3CCN(c4ccc5oc(N6CCOCC6)nc5c4)CC3)c2cn1` [Example 55, 5-(4-(1H-pyrrolo[3,2-c]pyridin-3-yl)piperidin-1-yl)-2-morpholinobenzo[d]oxazole] fall in the same range of EC50: 1 to 10 µM for the first, 1 to 10 µM for the second.

With `c1ccc2c(N3CCN(c4ccc5oc(N6CCOCC6)nc5c4)CC3)c[nH]c2c1` [Example 56, 5-(4-(1H-indol-3-yl)piperazin-1-yl)-2-morpholinobenzo[d]oxazole] the EC50 was 1 to 10 µM.

target: T2, flTau aggregates (longest isoform of human Tau, 2N4R) (Homo sapiens, UniProt P10636); test: Full-length Tau (flTau) disaggregation assay by Thioflavin T (ThT); type: biochemical; details: ThT fluorescence; 60 nM flTau aggregates, 30 minutes at RT; read-out: flTau disaggregation EC50
T2 construct: 35 μM of recombinant full-length (fl) Tau in phosphate-buffered saline (PBS) were aggregated; purchased Biotechne; host or cells: bacteria
Protocol: Full-Length Tau (flTau) Disaggregation Assay by Thioflavin T (ThT)
The longest isoform of human Tau (2N4R; 441 amino acids) was expressed in bacteria and purified (Biotechne). For the Tau disaggregation assay by ThT, 35 μM of recombinant full-length (fl) Tau in phosphate-buffered saline (PBS) were aggregated for 72 hours at 37° C. in presence of 35 μM of heparin (Sigma-Aldrich) and 10 mM of […] (Sigma-Aldrich) under shaking at 1000 RPM. Compound 1 was dissolved in anhydrous dimethyl sulfoxide (DMSO, Sigma-Aldrich) to reach a concentration of 2.5 mM. flTau aggregates and serial dilutions of compound 1 were mixed together in PBS (volume 50 μL) to a final concentration of 60 nM of flTau aggregates and from 20 to 0.0012 μM of Compound 1. The mixture was incubated for 30 minutes at room temperature (RT), then 40 μL of this mixture were transferred into a black 384-well plate assay (Perkin-Elmer) and mixed with 10 μL of 20 μM ThT in 250 mM glycine (both from Sigma-Aldrich) in PBS. Fluorescence (relative fluorescence units; RFU) was measured in monoplicate or duplicate on a Tecan reader (excitation: 440 nm; emission: 485 nm). Percentage of flTau disaggregation was then calculated and the half maximal effective concentration (EC50) was determined using GraphPad Prism version 8 (GraphPad Software) assuming a one-binding site fitting model, see Table 3 and Table 4.

T2 sequence (P10636 1-441 isoform P10636-8): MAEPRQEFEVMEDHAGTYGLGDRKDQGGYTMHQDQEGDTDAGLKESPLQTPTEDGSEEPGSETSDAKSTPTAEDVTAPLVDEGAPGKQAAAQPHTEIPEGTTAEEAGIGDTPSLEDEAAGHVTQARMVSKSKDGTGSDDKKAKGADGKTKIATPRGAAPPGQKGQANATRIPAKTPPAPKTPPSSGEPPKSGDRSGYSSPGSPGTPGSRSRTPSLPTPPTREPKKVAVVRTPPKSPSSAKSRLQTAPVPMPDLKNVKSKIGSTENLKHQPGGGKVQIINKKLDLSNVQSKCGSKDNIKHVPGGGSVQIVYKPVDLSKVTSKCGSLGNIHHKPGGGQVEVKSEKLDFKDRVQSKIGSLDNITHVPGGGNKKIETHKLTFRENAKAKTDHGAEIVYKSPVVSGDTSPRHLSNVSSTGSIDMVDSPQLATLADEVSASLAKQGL

First: Cn1cc(C2CCN(c3cc4nc(N5CCOCC5)oc4cn3)C2)c2cc(F)cnc21 (stereo not shown) [Example 87, 6-(3-(5-fluoro-1-methyl-1H-pyrrolo[2,3-b]pyridin-3-yl)pyrrolidin-1-yl)-2-morpholinooxazolo[5,4-c]pyridine]
Second: Cn1cc(C2CCN(c3ccc4nc(N5CCOCC5)oc4c3)C2)c2cc(F)cnc21 (stereo not shown) [Example 88, 6-(3-(5-fluoro-1-methyl-1H-pyrrolo[2,3-b]pyridin-3-yl)pyrrolidin-1-yl)-2-morpholinobenzo[d]oxazole]
The EC50 of the first is higher: 1 to 10 µM for the first, < 1 µM for the second.

`Cn1cc(C2CCN(c3ccc4nc(N5CCOCC5)oc4c3)C2)c2cc(F)cnc21` (stereo not shown) [Example 89, 6-(3-(5-fluoro-1-methyl-1H-pyrrolo[2,3-b]pyridin-3-yl)pyrrolidin-1-yl)-2-morpholinobenzo[d]oxazole] and `Cn1cc(C2CCN(c3ccc4oc(N5CCOCC5)nc4n3)C2)c2cc(F)cnc21` (stereo not shown) [Example 90, 5-(3-(5-fluoro-1-methyl-1H-pyrrolo[2,3-b]pyridin-3-yl)pyrrolidin-1-yl)-2-morpholinooxazolo[4,5-b]pyridine] cannot be ordered by EC50: < 1 µM for the first, < 1 µM for the second.

First: Cn1cc(C2CCN(c3ccc4oc(N5CCOCC5)nc4n3)C2)c2cc(F)cnc21 (stereo not shown) [Example 91, 5-(3-(5-fluoro-1-methyl-1H-pyrrolo[2,3-b]pyridin-3-yl)pyrrolidin-1-yl)-2-morpholinooxazolo[4,5-b]pyridine]
Second: Cn1cc(C2CCN(c3ccc4sc(N5CCOCC5)nc4c3)C2)c2cc(F)cnc21 (stereo not shown) [Example 95, 4-(5-(3-(5-fluoro-1-methyl-1H-pyrrolo[2,3-b]pyridin-3-yl)pyrrolidin-1-yl)benzo[d]thiazol-2-yl)morpholine]
The EC50 of the first is lower: < 1 µM for the first, 1 to 10 µM for the second. The first is the more potent here.

`COc1cccc2c(C3CCN(c4ccc5oc(N6CCOCC6)nc5c4)CC3)n[nH]c12` [Example 92, 5-(4-(7-methoxy-1H-indazol-3-yl)piperidin-1-yl)-2-morpholinobenzo[d]oxazole] and `Cc1cccc2[nH]nc(C3CCN(c4ccc5oc(N6CCOCC6)nc5c4)CC3)c12` [Example 93, 5-(4-(4-methyl-1H-indazol-3-yl)piperidin-1-yl)-2-morpholinobenzo[d]oxazole] fall in the same range of EC50: 1 to 10 µM for the first, 1 to 10 µM for the second.

First: FC1CN(c2ccc3oc(N4CCOCC4)nc3c2)CCC1c1n[nH]c2ccccc12 (stereo not shown) [Example 94, 5-(3-fluoro-4-(1H-indazol-3-yl)piperidin-1-yl)-2-morpholinobenzo[d]oxazole]
Second: C1=C(c2c[nH]c3ccccc23)CCN(c2ccc3oc(N4CCOCC4)nc3c2)C1 [Example 107, 5-(4-(1H-indol-3-yl)-3,6-dihydropyridin-1(2H)-yl)-2-morpholinobenzo[d]oxazole]
The EC50 of the first is higher: 1 to 10 µM for the first, < 1 µM for the second. The second is the more potent here.

Compared with `COC1CCN(c2nc3cc(N4CCC(c5cn(C)c6ncc(F)cc56)C4)ccc3o2)CC1` (stereo not shown) [Example 96, 5-(3-(5-fluoro-1-methyl-1H-pyrrolo[2,3-b]pyridin-3-yl)pyrrolidin-1-yl)-2-(4-methoxypiperidin-1-yl)benzo[d]oxazole], `Cn1cc(C2CCN(c3ccc4oc(N5CCOCC5)nc4c3)CC2)c2ncc(F)cc21` [Example 105, 5-(4-(6-fluoro-1-methyl-1H-pyrrolo[3,2-b]pyridin-3-yl)piperidin-1-yl)-2-morpholinobenzo[d]oxazole] is higher in EC50: 1 to 10 µM for the first, 10 to 50 µM for the second. The first is the more potent here.

`COC1CCN(c2nc3cc(N4CCC(c5cn(C)c6ncc(F)cc56)C4)ccc3o2)CC1` (stereo not shown) [Example 97, 5-(3-(5-fluoro-1-methyl-1H-pyrrolo[2,3-b]pyridin-3-yl)pyrrolidin-1-yl)-2-(4-methoxypiperidin-1-yl)benzo[d]oxazole] and `c1ccc2c(C3CCN(c4cnc5nc(N6CCOCC6)oc5c4)CC3)c[nH]c2c1` [Example 100, 6-(4-(1H-indol-3-yl)piperidin-1-yl)-2-morpholinooxazolo[4,5-b]pyridine] fall in the same range of EC50: 1 to 10 µM for the first, 1 to 10 µM for the second.

`c1ccc2c(C3CCN(c4ccc5nc(N6CCOCC6)sc5n4)CC3)n[nH]c2c1` [Example 106, 4-(5-(4-(1H-indazol-3-yl)piperidin-1-yl)thiazolo[5,4-b]pyridin-2-yl)morpholine] was tested, and the EC50 was 1 to 10 µM.

same assay, conditions: flTau disaggregation EC50, ThT fluorescence; 60 nM flTau aggregates, 30 minutes at RT

Molecule `Cn1cc(C2CCN(c3ccc4oc(N5CC6CC(C5)O6)nc4c3)C2)c2cc(F)cnc21` (stereo not shown) [Example 98, 3-(5-(3-(5-fluoro-1-methyl-1H-pyrrolo[2,3-b]pyridin-3-yl)pyrrolidin-1-yl)benzo[d]oxazol-2-yl)-6-oxa-3-azabicyclo[3.1.1]heptane] has an EC50 of 1 to 10 µM.

same assay, conditions: read-out: flTau disaggregation EC50; ThT fluorescence; 60 nM flTau aggregates, 30 minutes at RT

`Cn1cc(C2CCN(c3ccc4oc(N5CC6CC(C5)O6)nc4c3)C2)c2cc(F)cnc21` (stereo not shown) [Example 99, 3-(5-(3-(5-fluoro-1-methyl-1H-pyrrolo[2,3-b]pyridin-3-yl)pyrrolidin-1-yl)benzo[d]oxazol-2-yl)-6-oxa-3-azabicyclo[3.1.1]heptane] was tested, and the EC50 was 1 to 10 µM.
